Patent publication US5693677A, “Ceramide 3 derivatives based on monounsaturated fatty acids” (Gist-brocades N.V., priority 1994, dated 1997)
Values after ≈ are worked out from the molar mass of the structure shown.

Columns and labels:
[1] = Thermo-gravimetric analysis (TG/DTA) of ceramides, oxidation stability; type: physicochemical; conditions: 5° C./min; for Stability in thermo-gravimetric analysis: 25° to 180° C., oxygen (100 ml/min), in words
Description: Thermo-gravimetry (TG) and Differential Thermo-gravimetric Analysis (DTA) were carried out using the SSC 5200 system of Seiko, provided with the TG/DTA furnaces. Standard procedures were used to obtain the desired data.
Atmosphere oxygen (100 ml/min)
Reference empty, open Pt pan
Sample size ± 5 mg powder
Sample container open Pt pan

[2] = Solubility of ceramide 3 derivatives in emollients (visual inspection, maximum concentration before cloudiness); type: physicochemical; conditions: for solubility: organic solvent or mixture
Description: The compound produced in Example 1, N-oleoyl phytosphingosine (also called Ceramide IIIB) was tested by solubilisation in isocetyl alcohol (Eutanol™ G16, Henkel), isostearic acid (Emersol, Henkel), triglycerides (Myritolo 318, J. Dekker), wallnut oil (J. Dekker) and avocado oil (J. Dekker).
Increasing amounts of the compound were added to the solvent and stirred under nitrogen for 30 minutes at 45° C. After cooling to room temperature (22° C.±2° C.) the solutions were kept in the dark. After 1, 24 and 48 hours the solutions were visually inspected. The maximum concentration was determined before the solution turned cloudy, indicating the presence of insoluble crystals.
The solubility of a saturated ceramide 3 derivative, N-stearoylphytosphingosine, was also determined.

skin (SDS-challenge) = assay: Protective effects of ceramide IIIB formulations against SDS-challenge, TEWL; type: in vivo, human (female volunteers); conditions: pretreatment, in words (TEWL and skin colour)
Description: (§1) Measurements of trans-epidermal water loss (TEWL) were performed with the Tewameter (Courage & Khazaka, Cologne, Germany). The Tewameter is a device for measurement of water evaporation on skin surfaces based on the diffusion principle discovered by A. Fick in 1885.
before start of treatment;
two hours after last application on day 7;
2 hours after irritation with SDS (2 h under occlusion).
Two panels of each five female volunteers at the age of 19-55 years with healthy skin were included in the test.
Measurements were carried out at a temperature of 22°±1° C. and a relative humidity of 60±10%. Subjects were accustomed to ambient conditions for 20 min prior to any measurement. The test was carried out on the volar forearms. Initially untreated skin was measured in all four areas to find baseline values. Then the three test products were applied, one area remained untreated. The dose of application was about 2 mg/cm^2. In the following 7 days a home application in the morning and evening took place. Measurements were evaluated during the treatment period on day 7 two hours after the last daily application. […]
The results of TEWL and skin colour measurements are presented in respectively FIGS. 5 and 6. Values are expressed as (Valueday7 -Valueday0)/Valueday0 ×100%.

SDS-damaged skin [3] = assay: Effects of ceramide IIIB formulations on SDS-damaged skin, trans-epidermal water loss (TEWL); type: in vivo, human (female volunteers); conditions: 0.2 and 0.5% Ceramide IIIB
Description: as §1
(§2) after damaging the skin with SDS
(§3) 1 hour after last application on days 3, 7, 14
(§4) Five female volunteers at the age of 22-43 years with healthy skin were included in the test.
(§5) Measurements were carried out at a temperature of 22°±1° C. and a relative humidity of 60±10%. Subjects were accustomed to ambient conditions for 20 min prior to any measurement. The test was carried out on the volar forearms. The skin of the forearms was treated with a 5% aqueous solution of sodium lauryl sulphate (SDS) and an occlusive dressing applied. The dressing was removed 2 h later, and the regions gently washed with water and air-dried. After 30 min the measurements were done. Then the three test products were applied, one area remained untreated. The dose of application was about 2 mg/cm^2. In the following 14 days a home application in the morning and evening took place.
Measurements were evaluated during the treatment period on day 3, 7 and 14 one hour after the last daily application. Use of other cosmetic products was restricted on the test areas throughout the whole study.

SDS-damaged skin [4] = assay: Effects of ceramide IIIB formulations on SDS-damaged skin, skin humidity (corneometry); type: in vivo, human (female volunteers); conditions: skin pretreated with a surfactant (SDS), topical
Description: The corneometer CM 820 PC (Courage and Khazaka, Cologne, Germany) registers the electrical capacitance of the skin surface, which is a measure of the degree of moisture on the skin's surface. The capacitance is expressed digitally in arbitrary units (a.u.). Three measurements were performed on each test area and the mean was used to define hydration state of the stratum corneum.
as §2, §3, §4, §5
Measurements were evaluated during the treatment period on day 3, 7 and 14 one hour after the last daily application. […]

CCCCCCCCCCCCCCCCCC(=O)N[C@@H](CO)[C@H](O)[C@H](O)CCCCCCCCCCCCCC [Ceramide III, N-stearoylphytosphingosine, reference compound]
Stability in thermo-gravimetric analysis [1]: most stable compound as is illustrated by the absence of change of weight
solubility ([2]; avocado oil): 50 µg/mL (≈ 85.6 µM)
solubility ([2]; emersol (isostearic acid)): 600 µg/mL (≈ 1030 µM)
solubility ([2]; eutanol g16 (isocetyl alcohol)): 1600 µg/mL (≈ 2740 µM)
solubility ([2]; myritol 318 (triglycerides)): 50 µg/mL (≈ 85.6 µM)
solubility ([2]; wallnut oil): 50 µg/mL (≈ 85.6 µM)

CCCCCCCC/C=C\CCCCCCCC(=O)N[C@@H](CO)[C@H](O)[C@H](O)CCCCCCCCCCCCCC [Ceramide IIIB, N-oleoylphytosphingosine]
Protection from SDS-induced skin damage (skin (SDS-challenge)): protects the skin from SDS-induced damage
Stability in thermo-gravimetric analysis [1]: behaviour similar to ceramide 3, although showing a steadily increasing baseline, probably due to hydration. However, no sudden increase in weight followed by decomposition is observed
TEWL dose-response (SDS-damaged skin [3]): a clear dose-response effect
solubility ([2]; avocado oil): < 200 µg/mL
solubility ([2]; emersol (isostearic acid)): 8000 µg/mL (≈ 13700 µM)
Solubility compared with saturated analogue ([2]; emollients, in words): solubilizes much better than its saturated analogue
solubility ([2]; eutanol g16 (isocetyl alcohol)): 12000 µg/mL (≈ 20600 µM)
solubility ([2]; myritol 318 (triglycerides)): 800 µg/mL (≈ 1370 µM)
solubility ([2]; wallnut oil): 200 µg/mL (≈ 344 µM)
Recovery of diminished water-retaining properties of skin (SDS-damaged skin [4]): high capacity for recovering diminished water-retaining properties of the skin

CCCCC/C=C\C/C=C\CCCCCCCC(=O)N[C@@H](CO)[C@H](O)[C@H](O)CCCCCCCCCCCCCC [sample IIIA, N-linoleoylphytosphingosine]
Temperature at which weight increase (oxidation) followed by decomposition starts ([1]; oxygen): ca. 80 °C
Stability in thermo-gravimetric analysis [1]: increase in weight (oxidation) followed by decomposition
